Read-outs that look alike come from different tables or passages of the source.

One test relates to Zymoseptoria tritici. As to the kind of experiment: Leaf Blotch of Wheat (SEPTTR) fungicidal activity. Format: in vivo. To be noted: for pest or weed control at 121.5 g/ha: Low Volume (121.5 g/H); for pest or weed control at 100 µg/mL: High Volume (100 ppm). In outline:
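First-leaf Yuma wheat seedlings were sprayed to run-off (acetone solution in nine volumes water, 110 ppm Triton X-100; or track-sprayed EC, 0.1% Trycol 5941) and spore-inoculated before or after treatment. Held at 100% RH (1 day dark, 2–3 lit, 20 °C), greenhouse 20 °C; % control from 0–100% severity vs untreated.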

In the next test the test system is Puccinia triticina. The test is described as follows: Wheat Brown Rust (PUCCRT) fungicidal activity. Format: in vivo. To be noted: for pest or weed control at 121.5 g/ha: Low Volume (121.5 g/H); for pest or weed control at 100 µg/mL: High Volume (100 ppm). The method, boiled down:
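Yuma wheat seedlings at the first-leaf stage were sprayed to run-off with compound in acetone diluted with nine volumes of water containing 110 ppm Triton X-100. Some sprays were track-sprayed EC formulations with 0.1% Trycol 5941. Puccinia triticina spores were inoculated before or after treatment, followed by overnight dark dew at 22 °C and 100% RH, then 24 °C greenhouse.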

The mark [1] stands for this setting: 24 h, 1 Day Protectant, read-out: SEPTTR 1DP disease control.
Setting [2] is: 72 h, 3 Day Curative, read-out: SEPTTR 3DC disease control.
[3] abbreviates: 24 h, 1 Day Protectant, read-out: PUCCRT 1DP disease control.
Setting [4] is: 72 h, 3 Day Curative, read-out: PUCCRT 3DC disease control.

For `COc1ccnc(C(=O)N[C@H]2COCC[C@H](Cc3ccc(F)cc3)[C@@H](Oc3ccccc3)[C@H](C)OC2=O)c1OC(C)=O` [Compound 71], the pest or weed control at 121.5 g/ha in the test on Zymoseptoria tritici (setting [1]), with Zymoseptoria tritici (setting [2]), in the test on Puccinia triticina (setting [3]) and in the test on Puccinia triticina (setting [4]) was more than 80% throughout.

In the case of `COc1ccnc(C(=O)N[C@H]2COCC[C@H](Cc3ccc(F)cc3)[C@@H](Oc3ccccc3)[C@H](C)OC2=O)c1OCOC(C)=O` [Compound 72], the pest or weed control at 121.5 g/ha in the test with Zymoseptoria tritici (setting [1]), with Zymoseptoria tritici (setting [2]), in the test with Puccinia triticina (setting [3]) and with Puccinia triticina (setting [4]) was more than 80% in each case.

On to `COc1ccnc(C(=O)N[C@H]2COCC[C@H](Cc3ccc(F)cc3)[C@@H](Oc3ccccc3)[C@H](C)OC2=O)c1OCOC(=O)C(C)C` [Compound 73], for which the pest or weed control at 121.5 g/ha in the test with Zymoseptoria tritici (setting [1]), with Zymoseptoria tritici (setting [2]), with Puccinia triticina (setting [3]) and in the test with Puccinia triticina (setting [4]) was more than 80% throughout.

For the compound `COc1ccnc(C(=O)N[C@H]2COCC[C@H](Cc3ccc(F)cc3)[C@@H](OCC3CC3)[C@H](C)OC2=O)c1OCOC(C)=O` [Compound 74], the pest or weed control at 121.5 g/ha in the test on Zymoseptoria tritici (setting [1]) is more than 80%; in the test with Zymoseptoria tritici (setting [2]), less than 80%; with Puccinia triticina (setting [3]), more than 80%; in the test on Puccinia triticina (setting [4]) it was more than 80%.

Turning to `COc1ccnc(C(=O)N[C@H]2COCC[C@H](Cc3ccc(F)cc3)[C@@H](OC(=O)C(C)C)[C@H](C)OC2=O)c1OC(C)=O` [Compound 75], the pest or weed control at 121.5 g/ha in the test on Zymoseptoria tritici (setting [1]) is more than 80%; in the test on Zymoseptoria tritici (setting [2]), less than 80%; in the test with Puccinia triticina (setting [3]) it was more than 80%; with Puccinia triticina (setting [4]) it was more than 80%.

In the case of `COc1ccnc(C(=O)N[C@H]2COCC[C@H](Cc3ccc(F)cc3)[C@@H](OC(=O)C(C)C)[C@H](C)OC2=O)c1OCOC(C)=O` [Compound 76], the pest or weed control at 121.5 g/ha with Zymoseptoria tritici (setting [1]), in the test on Zymoseptoria tritici (setting [2]), in the test on Puccinia triticina (setting [3]) and in the test on Puccinia triticina (setting [4]) was more than 80% in each case.

As to `COc1ccnc(C(=O)N[C@H]2COCC[C@H](Cc3ccc(F)cc3)[C@@H](OCC3CC3)[C@H](C)OC2=O)c1OC(C)=O` [Compound 77], the pest or weed control at 121.5 g/ha in the test on Zymoseptoria tritici (setting [1]) was more than 80%; in the test with Zymoseptoria tritici (setting [2]) it was less than 80%; in the test on Puccinia triticina (setting [3]), more than 80%; in the test with Puccinia triticina (setting [4]), more than 80%.

Turning to `CCOCC(=O)OCOc1c(OC)ccnc1C(=O)N[C@H]1COCC[C@H](Cc2ccc(F)cc2)[C@@H](OCC2CC2)[C@H](C)OC1=O` [Compound 78], the pest or weed control at 121.5 g/ha in the test with Zymoseptoria tritici (setting [1]) was more than 80%; in the test with Zymoseptoria tritici (setting [2]) it was less than 80%; in the test on Puccinia triticina (setting [3]) it was more than 80%; in the test with Puccinia triticina (setting [4]), more than 80%.

Regarding `CC[C@H]1CCOC[C@H](NC(=O)c2nccc(OC)c2OCOC(C)=O)C(=O)O[C@@H](C)[C@@H]1OC(=O)C1CC1` [Compound 79], the pest or weed control at 121.5 g/ha with Zymoseptoria tritici (setting [1]), in the test with Puccinia triticina (setting [3]) and in the test with Puccinia triticina (setting [4]) was more than 80% each time.

Consider `CC[C@H]1CCOC[C@H](NC(=O)c2nccc(OC)c2OC(C)=O)C(=O)O[C@@H](C)[C@@H]1OC(=O)c1ccccc1` [Compound 80], for which the pest or weed control at 121.5 g/ha in the test with Zymoseptoria tritici (setting [1]) is more than 80%; in the test with Zymoseptoria tritici (setting [2]), less than 80%; in the test on Puccinia triticina (setting [3]) it was more than 80%; in the test with Puccinia triticina (setting [4]) it was more than 80%.

For the compound `COc1ccnc(C(=O)N[C@H]2COCCC[C@@H](CCC(C)C)[C@H](C)OC2=O)c1O` [Compound 112], the pest or weed control at 100 µg/mL in the test on Zymoseptoria tritici (setting [1]), in the test on Zymoseptoria tritici (setting [2]), in the test on Puccinia triticina (setting [3]) and in the test on Puccinia triticina (setting [4]) was less than 80% each time.

The values are drawn from patent US20180002320A1, “USE OF MACROCYCLIC PICOLINAMIDES AS FUNGICIDES” (DOW AGROSCIENCES LLC, priority 2014, published 2018).
